{
  "source": "paper PMC8395767",
  "about": "“Worsening of the Toxic Effects of (±)Cis-4,4′-DMAR Following Its Co-Administration with (±)Trans-4,4′-DMAR: Neuro-Behavioural, Physiological, Immunohistochemical and Metabolic Studies in Mice” (International Journal of Molecular Sciences, 2021)",
  "assay_type_in_all_cases": "in vivo",
  "key": {"[1]": {"tested_on": "mice", "experiment": "Convulsions (observation)", "conditions": "n=6 mice", "protocol": "(§1) The effects of (±)cis-4,4′-DMAR, (±)trans-4,4′-DMAR and their co-administration were investigated by a protocol widely used in studies of “safety pharmacology” for the preclinical characterization of new molecules in rodents. This protocol includes a series of observational behavioural tests carried out in a consecutive manner that monitor the animal responses up to 5 h after compound injections. In the present study, we reported the observation of physiological (sweating, salivation, core temperature) and neuro-behavioural (detection of psychomotor agitation, spontaneous and stimulated aggressiveness, convulsions) changes occurring in mice after injection of (±)cis-4,4′-DMAR, (±)trans-4,4′-DMAR and their co-administration. Before pharmacological treatment the mouse was placed on a square plate (30 cm× 30 cm) raised from the ground (20 cm) and left free to move on the plate for 10 min (habituation period). The animal was then injected with the vehicle, substances alone ((±)cis-4,4′-DMAR or (±)trans-4,4′-DMAR) or in cis + trans co-administration and placed on the plate. From this moment, the recording time of the physiological and neuro-behavioural responses started, and these were detected in 5-min sessions.\n(§2) After the first 5 min, the animal was removed from the plate; the body core temperature was then measured, and the aggression tests were performed. The 5-min observation period was repeated at 15–30–60–90–120–180–240–300. Psychomotor agitation in the mouse was not simply related to an increase in spontaneous locomotion itself, but by an “unusual hyperactivity” which was characterised by rapid and sudden horizontal displacements in all directions, sustained turning behaviour, involuntary falls from the high plate during the evaluation of the tests, stereotyped movements and rearing activity. Mouse sweating and salivation were reported only if present or not. The core temperature was determined using a probe (1 mm diameter) that was gently inserted after lubrication with liquid Vaseline into the rectum of the mouse (to about 2 cm) and left in position until the temperature stabilised (about 10 s). The probe was connected to a digital thermometer. Spontaneous aggressive response was measured based on the number of times a mouse bit a grey cloth put in front of its snout. During the test, each mouse was free to move within the cage. In the case of stimulated aggressiveness, each mouse was manually restrained and held in a supine position following which an object was brought near the mouth. For both spontaneous and stimulated aggressive behaviour tests, a grey cloth was placed in front of the nose of each mouse 10 consecutive times (score 0/10 not aggressive, score 10/10 very aggressive). Convulsions were defined as a loss of righting reflexes for at least 5 s, combined with the presence of body tremors and clonic or tonic limb movements. Deaths caused by 4-4’-DMAR injection occurring during the observation period (5 h) were also reported as frequency (%) and time of death (min). Experiments were conducted inside the LARP (Centralised Preclinical Research Laboratory, University of Ferrara, Ferrara, Italy) in a thermo-stated (temperature 20–22 °C, humidity about 45–55%) and light controlled (about 150 lux) room, in which there was a background noise of about 40 ± 4 dB. The experiments, conducted in blind by trained observers working together in pairs, were videotaped and eventually analysed off-line by a different trained operator. The experiments were performed between 8:30 a.m. and 2:00 p.m.\n(§3) Sweating and salivation were expressed as frequency (e.g., % of animals that developed symptoms); psychomotor agitation was expressed as frequency (% of animals) and duration (total time in mins). Core temperature values were expressed as the difference between control temperature (before injection) and temperature following drug administration (Δ°C). […]"}, "[2]": {"tested_on": "mice", "experiment": "Spontaneous and stimulated aggressiveness (bites of a grey cloth)", "protocol": "as §1, §2, §3"}, "[3]": {"tested_on": "mice", "experiment": "Sweating and salivation (observation, present or not)", "conditions": "n=6 mice", "protocol": "as §1, §2, §3"}, "[4]": {"tested_on": "mice", "experiment": "Psychomotor agitation (observational behavioural test)", "protocol": "as §1, §2, §3"}, "[5]": {"tested_on": "mice", "experiment": "Physiological and neuro-behavioural responses, all parameters (safety pharmacology protocol)", "protocol": "The effects of (±)cis-4,4′-DMAR, (±)trans-4,4′-DMAR and their co-administration were investigated by a protocol widely used in studies of “safety pharmacology” for the preclinical characterization of new molecules in rodents. This protocol includes a series of observational behavioural tests carried out in a consecutive manner that monitor the animal responses up to 5 h after compound injections. […] From this moment, the recording time of the physiological and neuro-behavioural responses started, and these were detected in 5-min sessions.\nAfter the first 5 min, the animal was removed from the plate; the body core temperature was then measured, and the aggression tests were performed. […] The core temperature was determined using a probe (1 mm diameter) that was gently inserted after lubrication with liquid Vaseline into the rectum of the mouse (to about 2 cm) and left in position until the temperature stabilised (about 10 s). […] Spontaneous aggressive response was measured based on the number of times a mouse bit a grey cloth put in front of its snout. […] The experiments, conducted in blind by trained observers working together in pairs, were videotaped and eventually analysed off-line by a different trained operator. […]"}, "[6]": {"conditions": "30 mg/kg i.p., listed as (±)cis-4,4′-DMAR"}, "[7]": {"conditions": "60 mg/kg i.p., listed as (±)cis-4,4′-DMAR"}, "[8]": {"conditions": "10 mg/kg i.p., n=4 mice (animals of the urine excretion study)"}},
  "note": "Where “and” joins values, the source holds several entries; their conditions need not be identical. Equal values may be shown once. Marks after values point to notes of the source that are not given here.",
  "data": [
    {"compound": "Cc1ccc(C2OC(N)=NC2C)cc1", "note": "(stereo not drawn) [cis-4,4’-DMAR, 4-methyl-5-(4-methylphenyl)-4,5-dihydrooxazol-2-amine]", "values": [
      {"measurement": "Convulsion Duration of each episode", "setting": "[1]; 30 mg/kg i.p.", "value": "4.86 ± 1.26", "unit": "s"},
      {"measurement": "Convulsion Episodes (n°)", "setting": "[1]; 30 mg/kg i.p.", "value": "3.5 ± 0.5", "unit": "n°"},
      {"measurement": "Convulsion Frequency % (n° of mice)", "setting": "[1]; 30 mg/kg i.p.", "value": "50% (3)"},
      {"measurement": "Convulsion Latency of first episode", "setting": "[1]; 30 mg/kg i.p.", "value": "10.5 ± 1.5", "unit": "s"},
      {"measurement": "Convulsion Frequency % (n° of mice)", "setting": "[1]; [6]", "value": 50, "unit": "%"},
      {"measurement": "Convulsion Duration of each episode", "setting": "[1]; 60 mg/kg i.p.", "value": "16.14 ± 6.2", "unit": "s"},
      {"measurement": "Convulsion Duration of each episode (sec)", "setting": "[1]; 60 mg/kg i.p.", "value": "16.14 ± 3.2 ^d sec"},
      {"measurement": "Convulsion Episodes (n°)", "setting": "[1]; 60 mg/kg i.p.", "value": "2.0 ± 0.41 ^d n° and 2.0 ± 0.41 n°"},
      {"measurement": "Convulsion Frequency % (n° of mice)", "setting": "[1]; 60 mg/kg i.p.", "value": "100% (6)"},
      {"measurement": "Convulsion Latency of first episode", "setting": "[1]; 60 mg/kg i.p.", "value": "8.25 ± 1.1", "unit": "s"},
      {"measurement": "Convulsion Frequency % (n° of mice)", "setting": "[1]; [7]", "value": 100, "unit": "%"},
      {"measurement": "Aggressiveness Stimulated Frequency % (n° of mice)", "setting": "[2]; [8]", "value": "100% (4)"},
      {"measurement": "Aggressiveness Stimulated Score (n° of bites)", "setting": "[2]; [8]", "value": "5 ± 0.23 n° of bites"},
      {"measurement": "Aggressiveness Stimulated Frequency % (n° of mice)", "setting": "[2]; 10 mg/kg i.p., n=6 mice", "value": "100% (6)"},
      {"measurement": "Aggressiveness Stimulated Score (n° of bites)", "setting": "[2]; 10 mg/kg i.p., n=6 mice", "value": "6 ± 0.23 n° of bites"},
      {"measurement": "Aggressiveness Stimulated Frequency % (n° of mice)", "setting": "[2]; 30 mg/kg i.p., n=6 mice", "value": "100% (6)"},
      {"measurement": "Aggressiveness Stimulated Score (n° of bites)", "setting": "[2]; 30 mg/kg i.p., n=6 mice", "value": "10 ± 0.23 ^b n° of bites"},
      {"measurement": "Spontaneous aggressiveness", "setting": "[2]; mice, i.p., 60 mg/kg could not be tested", "value": "not associated with increased levels"},
      {"measurement": "Salivation Frequency % (n° of mice)", "setting": "[3]; 30 mg/kg i.p.", "value": "100% (6)"},
      {"measurement": "Sweating Frequency % (n° of mice)", "setting": "[3]; 30 mg/kg i.p.", "value": "100% (6)"},
      {"measurement": "Salivation Frequency % (n° of mice)", "setting": "[3]; [6]", "value": "All animals"},
      {"measurement": "Sweating Frequency % (n° of mice)", "setting": "[3]; [6]", "value": "All animals"},
      {"measurement": "Salivation Frequency % (n° of mice)", "setting": "[3]; 60 mg/kg i.p.", "value": "50% (3)"},
      {"measurement": "Sweating Frequency % (n° of mice)", "setting": "[3]; 60 mg/kg i.p.", "value": "100% (6)"},
      {"measurement": "Sweating Frequency % (n° of mice)", "setting": "[3]; [7]", "value": 50, "unit": "%"},
      {"measurement": "Psychomotor agitation Frequency % (n° of mice)", "setting": "[4]; 1 mg/kg i.p., n=6 mice", "value": "ineffective"},
      {"measurement": "Psychomotor agitation Duration", "setting": "[4]; 3 mg/kg i.p., n=6 mice", "value": "54.2 ± 10.30", "unit": "min"},
      {"measurement": "Psychomotor agitation Frequency % (n° of mice)", "setting": "[4]; 3 mg/kg i.p., n=6 mice", "value": "100% (6)"},
      {"measurement": "Psychomotor agitation Latency", "setting": "[4]; 3 mg/kg i.p., n=6 mice", "value": "61.2 ± 6.30", "unit": "min"},
      {"measurement": "Psychomotor agitation, start of effect", "setting": "[4]; 10 mg/kg alone, mice", "value": "about thirty"},
      {"measurement": "Psychomotor agitation Duration", "setting": "[4]; [8]", "value": "125.0 ± 10.12", "unit": "min"},
      {"measurement": "Psychomotor agitation Frequency % (n° of mice)", "setting": "[4]; [8]", "value": "100% (4)"},
      {"measurement": "Psychomotor agitation Latency", "setting": "[4]; [8]", "value": "26.4 ± 6.25", "unit": "min"},
      {"measurement": "Psychomotor agitation Duration", "setting": "[4]; 10 mg/kg i.p., n=6 mice", "value": "121.0 ± 12.35", "unit": "min"},
      {"measurement": "Psychomotor agitation Duration (min)", "setting": "[4]; 10 mg/kg i.p., n=6 mice", "value": "121.0 ± 12.35 ^a min"},
      {"measurement": "Psychomotor agitation Frequency % (n° of mice)", "setting": "[4]; 10 mg/kg i.p., n=6 mice", "value": "100% (6)"},
      {"measurement": "Psychomotor agitation Latency", "setting": "[4]; 10 mg/kg i.p., n=6 mice", "value": "28.2 ± 7.20", "unit": "min"},
      {"measurement": "Psychomotor agitation Latency (min)", "setting": "[4]; 10 mg/kg i.p., n=6 mice", "value": "28.2 ± 7.20 ^a min"},
      {"measurement": "Psychomotor agitation Frequency % (n° of mice)", "setting": "[4]; 10 mg/kg i.p., n=6 mice, listed as (±)cis-4,4′-DMAR", "value": 100, "unit": "%"},
      {"measurement": "Psychomotor agitation Duration (min)", "setting": "[4]; 30 mg/kg i.p., n=6 mice", "value": "235.1 ± 15.25 ^ab min"},
      {"measurement": "Psychomotor agitation Frequency % (n° of mice)", "setting": "[4]; 30 mg/kg i.p., n=6 mice", "value": "100% (6)"},
      {"measurement": "Psychomotor agitation Latency (min)", "setting": "[4]; 30 mg/kg i.p., n=6 mice", "value": "3.2 ± 0.25 ^ab min"},
      {"measurement": "Psychomotor agitation Duration (min)", "setting": "[4]; 60 mg/kg i.p., n=6 mice", "value": "280.1 ± 12.35 ^ab min"},
      {"measurement": "Psychomotor agitation Frequency % (n° of mice)", "setting": "[4]; 60 mg/kg i.p., n=6 mice", "value": "100% (6)"},
      {"measurement": "Psychomotor agitation Latency", "setting": "[4]; 60 mg/kg i.p., n=6 mice", "value": "2.2 ± 0.15", "unit": "min"},
      {"measurement": "Psychomotor agitation Latency (min)", "setting": "[4]; 60 mg/kg i.p., n=6 mice", "value": "2.2 ± 0.15 ^ab min"},
      {"measurement": "Psychomotor agitation, dose range in which the effect was significant", "setting": "[4]; i.p., mice, tested 0.1–60 mg/kg", "value": "3 to 60", "unit": "mg/kg"}
    ]},
    {"compound": "Cc1ccc(C2OC(N)=NC2C)cc1", "note": "(stereo not drawn) [trans-4,4’-DMAR, 4-methyl-5-(4-methylphenyl)-4,5-dihydrooxazol-2-amine]", "values": [
      {"measurement": "Physiological and neuro-behavioural changes", "setting": "[5]; 30 and 60 mg/kg, systemic administration", "value": "did not induce any physiological and neuro-behavioural changes"},
      {"measurement": "Physiological and neuro-behavioural parameters, all parameters studied", "setting": "[5]; lower doses of 0.1 and 1 mg/kg", "value": "inactive"}
    ]}
  ]
}
